# Structures can show the parent of a compound that is named as a salt.
# Tests used:
# [1] = test system: S. aureus Col (Meth^R) (lac^-); assay: MIC by agar dilution, S. aureus Col (Meth^R) (lac^-); format: cell-based; conditions: Staphylococcus aureus; agar dilution; S. aureus Col (Meth^R) (lac^-); read-out: MIC
# Outline: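 Agar dilution per NCCLS (1991): two-fold dilutions from 128 μg/mL down to ≤0.25 μg/mL in Mueller-Hinton agar, each level in duplicate. Spots of about 10^4 cfu of log-phase culture; 16-20 h at 35°-36° C. MIC in μg/ml is the lowest concentration inhibiting growth.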
# [2] = test system: methicillin-susceptible S. aureus strain ATCC 13709; assay: murine model for lethal bacteremic peritonitis; format: in vivo, female Swiss-Webster mice; conditions: subcutaneous, 72 h
# Method: Groups of 5 female Swiss-Webster mice (Simonsen, Gilroy, Calif.) each are challenged by the intraperitoneal (IP) route with tenfold increments of a bacterial inoculum. This permits calculation of the mean lethal dose (LD50) and the LD100. For preliminary evaluation of a new antibiotic, mice are challenged IP with an LD100 titer of bacteria. In two equal doses administered at the time of bacterial challenge and 2 hours later, groups of 10 mice each are treated subcutaneously with two-fold increments of the test drug and an antibiotic of known efficacy in mice and humans (i.e., positive control). Mice are observed for 72 h. Those alive at 72 h are considered long term survivors. The total drug dose in mg/kg that protects 50% of mice in a group from death is termed the mean protective dose (PD50). PD50 s are similarly determined for several pathogens. The quantitative endpoints for the new drug are then compared with those obtained with reference antibiotics.
# Six ten-fold dilutions of inoculum suspended in 0.5 mL of sterilized 7% hog gastric mucin (Sigma) are injected IP in groups of 5 mice each. A control group of 5 mice receive mucin alone. Mice are observed for 72 h. Those alive at 72 h are considered long term survivors. The mean lethal dose (LD50) and 100% lethal dose (LD100) are determined by the probit test.
# For antibiotic efficacy studies, mice are challenged IP with bacterial titers that will afford an LD100 for the test strain. In two equal doses administered at the time of bacterial challenge and 2 hours later, groups of 10 mice each are treated by the subcutaneous route (SC) with twofold increments of the test antibiotic; another group is treated similarly with a reference antibiotic of known efficacy in animals and man. Drug doses can range from 0.01 to 512 mg/kg. If the drug is poorly soluble, Tween 20 or propylene glycol will be employed to solubilize the drug. Animals are observed for 72 h. The 50% protective dose (PD50) is calculated in mg/kg by the probit method. The PD50 is the same as the 50% effective dose (ED50) and the 50% curative dose (CD50). Samples of blood from the hearts of all animals that die and from half the mice that survive are cultured on brain-heart infusion agar. Animals that received a protective dosage of the test drug will be alive at 72 h, although they may appear moderately ill to very ill during the observation period. […] Most of these mice will die within 6 to 48 h. Those alive at 72 h will be considered long term survivors.
# (Compound numbers correspond to those in MIC tables; data
# reported for challenge with methicillin-susceptible S. aureus
Structure (SMILES),MIC [1],Mortality ([2]; dose 2.5 mg/kg),Mortality ([2]; dose 5 mg/kg),Mortality ([2]; dose 10 mg/kg),Mortality ([2]; dose 20 mg/kg),Mortality ([2]; dose 40 mg/kg),Mortality ([2]; dose 2 mg/kg),Mortality ([2]; dose 4 mg/kg),Mortality ([2]; dose 8 mg/kg),Mortality ([2]; dose 16 mg/kg),Mortality ([2]; dose 0.625 mg/kg),Mortality ([2]; dose 1.25 mg/kg),Mortality ([2]; dose 0.3125 mg/kg)
"CO/N=C(\C(=O)N[C@@H]1C(=O)N2C(C(=O)O)=C(COC(C)=O)CS[C@H]12)c1csc(N)n1 [Cefotaxime, (7R)-3-Acetoxymethyl-7-[(Z)-2-(aminothiazol-4-yl)-2-(methoxyimino)acetamido]-3-cephem-4-carboxylic acid, reference compound]",> 32 µg/mL,8/10,5/10,3/10,4/10,1/10,–,–,–,–,–,–,–
"N#CCC(=O)N[C@@H]1C(=O)N2C(C(=O)O)=C(Sc3ccccc3I)CS[C@H]12 [Cmpd 17, (7R)-7-[(Cyanoacetyl)amino]-3-(o-iodophenylthio)-3-cephem-4-carboxylic acid]",2 µg/mL,–,–,–,–,–,8/10,5/10,0/10,0/10,–,–,–
"N#Cc1ccccc1SC1=C(C(=O)O)N2C(=O)[C@@H](NC(=O)Cc3ccccc3)[C@H]2SC1 [Cmpd 41, (7R)-7-[(Phenylacetyl)amino]-3-(2-cyanophenylthio)-3-cephem-4-carboxylic acid]",1 µg/mL,0/10,0/10,0/10,–,–,–,–,–,–,8/10,6/10,–
"O=C(Cc1ccccc1)N[C@@H]1C(=O)N2C(C(=O)O)=C(Sc3cccnc3-c3ccccc3)CS[C@H]12 [Cmpd 81, (7R)-7-[(Phenylacetyl)amino]-3-(2-phenylpyridin-3-ylthio)-3-cephem-4-carboxylic acid]",2 µg/mL,–,–,–,–,–,8/10,10/10,5/10,2/10,–,–,–
"O=C(Cc1ccccc1)N[C@@H]1C(=O)N2C(C(=O)O)=C(Sc3ccnn3-c3ccccc3)CS[C@H]12 [Cmpd 87, (7R)-7-[(Phenylacetyl)amino]-3-(1-N-phenylpyrazol-5-ylthio)-3-cephem-4-carboxylic acid]",1 µg/mL,–,–,–,–,–,4/10,3/10,0/10,0/10,–,–,–
"N#CCC(=O)N[C@@H]1C(=O)N2C(C(=O)O)=C(Sc3ccnn3-c3ccccc3)CS[C@H]12 [Cmpd 88, (7R)-7-[(Cyanoacetyl)amino]-3-(1-N-phenylpyrazol-5-ylthio)-3-cephem-4-carboxylic acid]",4 µg/mL,0/10,0/10,0/10,–,–,–,–,–,–,2/10,1/10,–
"Nc1nc(/C(=N/OC2CCCC2)C(=O)N[C@@H]2C(=O)N3C(C(=O)O)=C(Sc4ccnn4-c4ccccc4)CS[C@H]23)cs1 [Cmpd 89, (7R)-7-[(Z)-2-(aminothiazol-4-yl)-2-(cyclopentyloxyimino)acetamido]-3-(1-N-phenylpyrazol-5-ylthio)-3-cephem-4-carboxylic acid]",2 µg/mL,9/10,8/10,8/10,–,–,–,–,–,–,9/10,9/10,–
"N=C(N)SCc1ccc(CC(=O)N[C@@H]2C(=O)N3C(C(=O)O)=C(Sc4ccccc4CSC(=N)N)CS[C@H]23)cc1 [Cmpd 97, (7R)-7-[((4-isothiouroniummethylphenyl)acetyl)amino]-3-(2-isothiouroniummethylphenylthio)-3-cephem-4-carboxylate, trifluoroacetic acid salt]",2 µg/mL,2/10,0/10,–,–,–,–,–,–,–,5/10,3/10,8/10
"N=C(N)SCc1ccccc1SC1=C(C(=O)O)N2C(=O)[C@@H](NC(=O)Cc3ccccc3CN)[C@H]2SC1 [Cmpd 101, (7R)-7-[((2-Aminomethylphenyl)acetyl)amino]-3-(2-isothiouroniummethylphenylthio)-3-cephem-4-carboxylate, trifluoroacetic acid salt]",4 µg/mL,0/10,0/10,0/10,–,–,–,–,–,–,5/10,2/10,–
